Key:
[1] = test system: MOLM-13-RES cells; test: MTS cell viability assay, MOLM-13-RES; assay type: cell-based, human; settings: ratio of in vitro viability potency, MOLM-13-RES vs MOLM-13
[2] = single-agent phase I-II clinical trial in AML; cited from earlier work
[3] = in mice; cited from earlier work
[4] = in vivo; design: species or system mice; settings: female, athymic CrTac:NCr-Fox1(nu), mouse, po, 160 mg/kg

SMILES | relative resistance of MOLM-13-RES compared with parental MOLM-13 cells [1] | response rate [2] [%] | also measured
CC(C)(C)c1cc(NC(=O)Nc2ccc(-c3cn4c(n3)sc3cc(OCCN5CCOCC5)ccc34)cc2)no1 [AC220] | approximately 23 fold | – | –
CCN(CCCOc1ccc2c(Nc3cc(CC(=O)Nc4cccc(F)c4)n[nH]3)ncnc2c1)CCOP(=O)(O)O [AZD1152] | – | 25 | –
COc1cc2c(N3CCN(C(=O)Nc4ccc(OC(C)C)cc4)CC3)ncnc2cc1OCCCN1CCCCC1 [MLN518] | – | – | plasma protein binding [3]: 80%; concentration at 1 h after the last dose [4]: ~200 nM; concentration at 6 h after the last dose [4]: ~40 nM
COc1cc(Nc2ncc3c(n2)-c2ccc(Cl)cc2C(c2c(F)cccc2OC)=NC3)ccc1C(=O)O [MLN8237] | – | 17 | –
CNC(=O)c1cc(Oc2ccc(NC(=O)Nc3ccc(Cl)c(C(F)(F)F)c3)cc2)ccn1 [Sorafenib] | approximately 60 fold | – | –

Source: publication PMC3523391 (Leukemia, 2012)
